Here are results for two molecules from US7326721B2 (Hypnion, Inc., priority 2003, dated 2008).

Several values for one entry are separate records, joined by “and”; a condition that tells them apart may be missing. Equal entries are not always repeated.

The test system of data set [1] is Vasoactive Intestinal Peptide, Non-selective. As to the kind of experiment: Table 12 panel: VIP. The format is binding. The settings on record: 1.0E−6, average N=2. The text has this:
(§1) The percentage inhibition (average; N=2) for these receptors is shown below in Table 12.
(§2) Values in Table 12 are expressed as percentage inhibition of specific binding, and these values represent the average of replicate tubes at each of the concentrations tested.

Data set [2] has as its target Leukotriene, LTD4 (Homo sapiens, UniProt Q9Y271). As to the kind of experiment: Table 12 panel: Leukotriene, LTD4. The settings on record: 1.0E−6, average N=2, read-out: percentage inhibition of specific binding.
Text: as §1, §2

In data set [3] the target is Calcium Channel, Type N (Homo sapiens, UniProt Q00975). Put plainly: Table 12 panel: Calcium Channel, Type N. The settings on record: 1.0E−6, average N=2, read-out: percentage inhibition of specific binding.
Text: as §1, §2

Data set [4] deals with Testosterone (cytosolic) (Homo sapiens, UniProt P10275). Put plainly: Table 12 panel: Testosterone. As to conditions: 1.0E−6, average N=2, read-out: percentage inhibition of specific binding.
Text: as §1, §2

Data set [5] has as its target Endothelin, ET-B (h) (Homo sapiens, UniProt P24530). Put plainly: Table 12 panel: Endothelin, ET-B. As to conditions: 1.0E−6, average N=2, read-out: percentage inhibition of specific binding.
Text: as §1, §2

Data set [6] has as its target Nitric Oxide, NOS (Neuronal-Binding) (Homo sapiens, UniProt P29475). As to the kind of experiment: Table 12 panel: NOS. As to conditions: 1.0E−6, average N=2, read-out: percentage inhibition of specific binding.
Text: as §1, §2

For data set [7], the system named is Estrogen. As to the kind of experiment: Table 12 panel: Estrogen. Type of data set: binding. The settings on record: 1.0E−6, average N=2.
Text: as §1, §2

Data set [8] deals with Muscarinic, Non-selective, Peripheral. As to the kind of experiment: Table 12 panel: Muscarinic, Peripheral. As to conditions: 1.0E−6, average N=2. The format is binding.
Text: as §1, §2

The target in data set [9] is Oxytocin (Homo sapiens, UniProt P30559). Put plainly: Table 12 panel: Oxytocin. As to conditions: 1.0E−6, average N=2, read-out: percentage inhibition of specific binding.
Text: as §1, §2

The target in data set [10] is GABA-B (Homo sapiens, UniProt Q9UBS5). As to the kind of experiment: Table 12 panel: GABA-B. As to conditions: 1.0E−6, average N=2, read-out: percentage inhibition of specific binding.
Text: as §1, §2

Data set [11] deals with Norepinephrine Transporter (Homo sapiens, UniProt P23975). Put plainly: Table 12 panel: Norepinephrine Transporter. The settings on record: 1.0E−6, average N=2, read-out: percentage inhibition of specific binding.
Text: as §1, §2

The target of data set [12] is Bradykinin, BK2 (Homo sapiens, UniProt P30411). As to the kind of experiment: Table 12 panel: Bradykinin, BK2. As to conditions: 1.0E−6, average N=2, read-out: percentage inhibition of specific binding.
Text: as §1, §2

The target in data set [13] is Oxidase, MAO-B, Peripheral (Homo sapiens, UniProt P27338). As to the kind of experiment: Table 12 panel: MAO-B. The format is biochemical. The settings on record: 1.0E−6, average N=2.
Text: as §1, §2

The subject of data set [14] is Calcium Channel, Type L (Dihydropyridine Site). As to the kind of experiment: Table 12 panel: Calcium Channel, Type L. The format is binding. As to conditions: 1.0E−6, average N=2.
Text: as §1, §2

Data set [15] addresses Esterase, Acetylcholine (Homo sapiens, UniProt P22303). Put plainly: Table 12 panel: Acetylcholine esterase. Type of data set: biochemical. As to conditions: 1.0E−6, average N=2.
Text: as §1, §2

Data set [16] concerns Serotonin, Non-selective. As to the kind of experiment: Table 12 panel: Serotonin, Non-selective. Type of data set: binding. The settings on record: 1.0E−6, average N=2.
Text: as §1, §2

For data set [17], the target named is Endothelin, ET-A (h) (Homo sapiens, UniProt P25101). As to the kind of experiment: Table 12 panel: Endothelin, ET-A. As to conditions: 1.0E−6, average N=2, read-out: percentage inhibition of specific binding.
Text: as §1, §2

Data set [18] concerns Beagles. As to the kind of experiment: 14-day dog study with recovery phase. The format is in vivo. As for the experimental part: (§3) The toxicity and the toxicokinetics of HY2901 when administered daily via oral gavage (Phase 1) or capsules (Phase 2) to dogs for at least 14 days was determined. The reversibility, persistence, or delayed occurrence of observable effects following a 7-day (Phase 1) or 14-day (Phase 2) recovery period was also assessed. Doses of 3, 10, 30, and 70 mg/kg/day were studied.

Data set [19] is described as follows: 14-day dog study with recovery phase. The format is in vivo. As to conditions: Beagle, dog, in vivo. As for the experimental part: as §3
Data set [20] in a line: Brain levels of parent drug after oral administration. As to conditions: rat, 3 mg/kg.
In data set [21] the test system is rat hepatocytes. Put plainly: In vitro rate of metabolism in rat hepatocyte cultures. The format is in vitro ADME. As to the method: (§4) Cytochrome P450 inhibition was studied with HY2901 in vitro. […] In addition, the in vitro rate of metabolism in rat, dog, monkey, and human hepatocyte cultures was determined for HY2901.
Data set [22] deals with T1, CYP 2D6 (Homo sapiens, UniProt P10635).
T1 construct: in a commercially available human microsomal preparation; purchased; host or cells: human microsomal preparation
Put plainly: Cytochrome P450 inhibition: CYP 2D6. As to conditions: human microsomal preparation. The format is in vitro ADME. As for the experimental part: as §4

The subject of data set [23] is Crl:CD-I(ICR)BR mice. Put plainly: Acetic acid-induced abdominal spasm test in the mouse. Type of data set: in vivo. The settings on record: for Number of abdominal spasms recorded in a 25-minute period: oral. As for the experimental part: The objective of this example was to determine the analgesic activity of HY-2901 (Also referred to herein as Compound 49a) following oral administration. Analgesic activity was assessed abdominal spasm test in the rat and mouse. Analgesic activity is also assessed using the tail clip test in the mouse, tail flick test in the rat, Randall-Selitto test in the rat and comparisons are made with a vehicle control group. Reference compounds ASA (acetylsalicylic acid) and morphine are also included for comparison.
The tail clip and tail flick test provide useful information about the central analgesic activity of the test article. The Randall-Selitto test provides information on the compound's ability to modify a hyperalgesic state and the abdominal spasm test provides information on the peripheral analgesic activity of the test article. The test article is administered by oral gavage, this being the intended clinical route of administration. The dose levels employed are expected to encompass the efficacy dose and provide an adequate safety margin.
All formulations were prepared on each day of dosing. The test article (HY-2901) was formulated in 0.25% (w/v) MC at the highest concentration required. Lower doses were obtained by serial dilution of the highest concentration using 0.25% (w/v) MC. The reference compound, acetylsalicylic acid, was formulated in 0.25% (w/v) MC at the required concentrations. Brewer's yeast was formulated in water for injection at the required concentration. Acetic acid was diluted with water for injection to provide the required concentration for administration.
An adequate number of male Crl:CD-I(ICR)BR mice and Wistar rats were obtained from Charles River (UK) Ltd., Margate, Kent. The mice were approximately 4 weeks of age and weigh between 18 and 22 g on arrival. The rats were approximately 5 weeks of age and weigh between 150 and 170 g on arrival. The age and weight of the animals at the start of the study was documented in the raw data and final report,
Each animal received a single administration of vehicle, test article or reference compound by oral gavage, using a constant dose volume 10 mL/kg. Individual dose volumes were based on individual body weights obtained on the day of dosing.
Forty-five minutes following oral administration each animal received a 0.25 mL intraperitoneal injection of 0.5% acetic acid. Animals were immediately placed into individual observation chambers and the number of abdominal spasms elicited over the subsequent 25-minute period was recorded.

Data set [24] deals with hERG (Homo sapiens, UniProt Q12809). Put plainly: in vitro. As to conditions: pH 7.4.
Chain of hERG (Q12809 whole entry): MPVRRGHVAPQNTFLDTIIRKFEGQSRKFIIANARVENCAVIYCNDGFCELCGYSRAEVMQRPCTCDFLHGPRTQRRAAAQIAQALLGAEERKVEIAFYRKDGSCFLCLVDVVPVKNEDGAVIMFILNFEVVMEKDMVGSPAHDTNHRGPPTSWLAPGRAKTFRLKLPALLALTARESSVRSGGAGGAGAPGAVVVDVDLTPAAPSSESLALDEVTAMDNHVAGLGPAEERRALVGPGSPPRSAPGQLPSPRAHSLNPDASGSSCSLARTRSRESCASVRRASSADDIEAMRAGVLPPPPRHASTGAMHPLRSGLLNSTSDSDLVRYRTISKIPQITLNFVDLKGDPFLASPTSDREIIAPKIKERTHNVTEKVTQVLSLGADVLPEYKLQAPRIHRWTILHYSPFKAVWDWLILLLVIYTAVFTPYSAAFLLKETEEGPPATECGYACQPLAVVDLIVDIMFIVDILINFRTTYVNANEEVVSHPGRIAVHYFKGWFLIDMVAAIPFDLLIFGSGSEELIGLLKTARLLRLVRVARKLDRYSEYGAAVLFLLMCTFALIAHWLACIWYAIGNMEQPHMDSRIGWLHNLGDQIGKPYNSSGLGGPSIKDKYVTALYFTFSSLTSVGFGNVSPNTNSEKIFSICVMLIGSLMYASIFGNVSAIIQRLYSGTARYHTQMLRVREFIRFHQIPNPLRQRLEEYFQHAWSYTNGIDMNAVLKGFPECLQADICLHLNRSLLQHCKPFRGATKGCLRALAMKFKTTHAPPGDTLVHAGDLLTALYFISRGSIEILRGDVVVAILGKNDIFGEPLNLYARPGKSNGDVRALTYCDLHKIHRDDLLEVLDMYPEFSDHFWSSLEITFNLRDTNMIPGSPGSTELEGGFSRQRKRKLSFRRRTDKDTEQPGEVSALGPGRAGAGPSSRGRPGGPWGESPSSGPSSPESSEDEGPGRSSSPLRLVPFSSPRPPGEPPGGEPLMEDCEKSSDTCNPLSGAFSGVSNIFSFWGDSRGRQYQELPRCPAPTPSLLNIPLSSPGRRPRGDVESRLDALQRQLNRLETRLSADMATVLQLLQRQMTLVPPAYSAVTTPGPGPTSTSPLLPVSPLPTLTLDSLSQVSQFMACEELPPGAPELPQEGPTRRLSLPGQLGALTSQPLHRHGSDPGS

Chain of Leukotriene, LTD4 (Q9Y271 whole entry): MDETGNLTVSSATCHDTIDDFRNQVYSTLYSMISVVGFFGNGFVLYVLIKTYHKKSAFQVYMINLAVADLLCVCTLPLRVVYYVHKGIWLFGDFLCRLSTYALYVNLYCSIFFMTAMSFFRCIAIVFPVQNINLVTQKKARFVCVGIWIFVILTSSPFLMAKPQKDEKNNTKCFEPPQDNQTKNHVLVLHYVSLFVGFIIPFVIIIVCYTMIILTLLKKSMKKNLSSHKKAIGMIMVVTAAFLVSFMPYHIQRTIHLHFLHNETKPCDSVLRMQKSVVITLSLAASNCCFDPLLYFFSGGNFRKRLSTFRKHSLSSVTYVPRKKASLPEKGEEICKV
Chain of Testosterone (cytosolic) (P10275 whole entry): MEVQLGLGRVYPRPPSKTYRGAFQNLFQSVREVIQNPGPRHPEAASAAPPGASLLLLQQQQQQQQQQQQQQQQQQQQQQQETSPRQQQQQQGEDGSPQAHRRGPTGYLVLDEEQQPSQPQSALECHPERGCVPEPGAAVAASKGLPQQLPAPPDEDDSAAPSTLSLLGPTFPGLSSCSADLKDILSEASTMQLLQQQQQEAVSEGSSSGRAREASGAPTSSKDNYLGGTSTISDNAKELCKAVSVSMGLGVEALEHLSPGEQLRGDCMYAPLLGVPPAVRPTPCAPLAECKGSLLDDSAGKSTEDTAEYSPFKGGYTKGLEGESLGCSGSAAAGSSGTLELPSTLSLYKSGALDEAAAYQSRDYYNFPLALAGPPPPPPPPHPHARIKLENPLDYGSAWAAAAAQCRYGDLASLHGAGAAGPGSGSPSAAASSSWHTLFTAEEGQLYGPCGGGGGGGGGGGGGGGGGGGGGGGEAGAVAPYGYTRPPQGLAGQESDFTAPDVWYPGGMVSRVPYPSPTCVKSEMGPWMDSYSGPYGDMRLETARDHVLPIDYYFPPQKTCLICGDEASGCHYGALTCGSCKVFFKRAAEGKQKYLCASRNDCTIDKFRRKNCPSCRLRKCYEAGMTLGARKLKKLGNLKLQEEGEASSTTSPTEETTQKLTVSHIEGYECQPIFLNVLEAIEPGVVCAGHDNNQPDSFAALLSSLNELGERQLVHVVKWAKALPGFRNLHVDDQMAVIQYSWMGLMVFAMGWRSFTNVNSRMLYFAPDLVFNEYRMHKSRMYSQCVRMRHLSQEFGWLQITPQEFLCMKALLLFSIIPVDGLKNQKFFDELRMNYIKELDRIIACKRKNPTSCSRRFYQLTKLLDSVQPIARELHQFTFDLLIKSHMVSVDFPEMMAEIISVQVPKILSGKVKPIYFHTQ
Chain of Oxidase, MAO-B, Peripheral (P27338 whole entry): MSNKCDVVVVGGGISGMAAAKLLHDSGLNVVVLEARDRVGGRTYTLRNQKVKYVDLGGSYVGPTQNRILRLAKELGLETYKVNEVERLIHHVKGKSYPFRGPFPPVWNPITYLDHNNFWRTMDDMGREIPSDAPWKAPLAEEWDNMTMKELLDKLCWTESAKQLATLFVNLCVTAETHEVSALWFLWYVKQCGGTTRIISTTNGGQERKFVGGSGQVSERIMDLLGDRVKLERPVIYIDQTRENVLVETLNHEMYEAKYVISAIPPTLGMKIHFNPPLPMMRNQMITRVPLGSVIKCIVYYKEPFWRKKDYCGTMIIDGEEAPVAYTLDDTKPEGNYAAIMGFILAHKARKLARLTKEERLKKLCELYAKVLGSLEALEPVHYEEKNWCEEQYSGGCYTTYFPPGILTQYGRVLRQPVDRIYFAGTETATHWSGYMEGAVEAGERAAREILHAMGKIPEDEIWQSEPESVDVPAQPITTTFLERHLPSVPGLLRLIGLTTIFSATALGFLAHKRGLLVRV
Chain of Oxytocin (P30559 whole entry): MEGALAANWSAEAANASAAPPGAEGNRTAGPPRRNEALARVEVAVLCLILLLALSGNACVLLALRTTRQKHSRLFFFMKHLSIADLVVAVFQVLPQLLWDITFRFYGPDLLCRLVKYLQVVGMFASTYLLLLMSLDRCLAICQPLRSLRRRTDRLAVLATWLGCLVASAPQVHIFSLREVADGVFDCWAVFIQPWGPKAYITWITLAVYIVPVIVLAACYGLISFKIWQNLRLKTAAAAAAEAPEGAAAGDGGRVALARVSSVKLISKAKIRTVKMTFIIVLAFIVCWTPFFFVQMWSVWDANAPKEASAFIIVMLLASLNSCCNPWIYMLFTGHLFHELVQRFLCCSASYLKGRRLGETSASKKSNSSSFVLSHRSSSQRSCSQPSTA
T1 sequence (P10635 whole entry): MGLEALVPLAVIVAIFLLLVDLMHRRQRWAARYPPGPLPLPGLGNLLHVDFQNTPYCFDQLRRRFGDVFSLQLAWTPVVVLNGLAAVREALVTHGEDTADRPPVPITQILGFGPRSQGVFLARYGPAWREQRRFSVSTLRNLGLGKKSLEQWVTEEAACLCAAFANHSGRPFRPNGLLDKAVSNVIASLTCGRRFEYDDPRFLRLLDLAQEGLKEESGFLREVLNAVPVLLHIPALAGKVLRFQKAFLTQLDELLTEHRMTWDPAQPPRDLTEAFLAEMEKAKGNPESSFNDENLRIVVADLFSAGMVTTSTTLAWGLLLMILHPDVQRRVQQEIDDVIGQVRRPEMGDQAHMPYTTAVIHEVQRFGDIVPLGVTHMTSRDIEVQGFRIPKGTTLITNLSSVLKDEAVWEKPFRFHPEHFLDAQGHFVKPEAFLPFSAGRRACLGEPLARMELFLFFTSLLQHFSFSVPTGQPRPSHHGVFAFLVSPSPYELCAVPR
Chain of Endothelin, ET-A (h) (P25101 21-427): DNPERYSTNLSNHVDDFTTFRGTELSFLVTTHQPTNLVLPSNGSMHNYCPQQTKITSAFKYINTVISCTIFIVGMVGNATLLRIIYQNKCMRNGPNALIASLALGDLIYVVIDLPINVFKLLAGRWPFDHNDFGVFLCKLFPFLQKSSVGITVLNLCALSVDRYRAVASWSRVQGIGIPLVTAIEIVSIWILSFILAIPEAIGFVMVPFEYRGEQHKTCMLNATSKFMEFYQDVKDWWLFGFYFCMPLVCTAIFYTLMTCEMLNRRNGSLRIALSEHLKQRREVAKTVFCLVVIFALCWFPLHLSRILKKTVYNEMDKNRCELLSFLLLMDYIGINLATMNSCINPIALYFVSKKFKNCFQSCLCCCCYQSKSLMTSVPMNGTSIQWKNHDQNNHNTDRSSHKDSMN
Chain of Norepinephrine Transporter (P23975 whole entry, species assumed): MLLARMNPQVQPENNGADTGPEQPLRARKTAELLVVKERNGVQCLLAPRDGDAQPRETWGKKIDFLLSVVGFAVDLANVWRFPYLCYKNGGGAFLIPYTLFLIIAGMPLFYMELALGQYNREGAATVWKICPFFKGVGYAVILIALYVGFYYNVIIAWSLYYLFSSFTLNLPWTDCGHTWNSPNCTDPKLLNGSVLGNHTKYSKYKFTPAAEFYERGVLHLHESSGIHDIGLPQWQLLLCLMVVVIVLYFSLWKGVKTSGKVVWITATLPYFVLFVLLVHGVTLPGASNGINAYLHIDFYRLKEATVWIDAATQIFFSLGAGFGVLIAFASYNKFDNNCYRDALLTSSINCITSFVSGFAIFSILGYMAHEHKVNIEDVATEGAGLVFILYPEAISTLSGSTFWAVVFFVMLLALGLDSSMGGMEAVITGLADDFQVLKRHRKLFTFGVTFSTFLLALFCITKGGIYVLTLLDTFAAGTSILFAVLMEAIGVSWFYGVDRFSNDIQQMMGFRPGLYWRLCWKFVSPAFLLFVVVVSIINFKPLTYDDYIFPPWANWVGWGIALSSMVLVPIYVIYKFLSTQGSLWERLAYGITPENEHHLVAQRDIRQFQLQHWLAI

Take `CC(CC(=O)O)N1CCC(=C2c3ccc(F)cc3COc3ccccc32)CC1` (stereo not shown) [Compound 37]: the “percentage inhibition of specific binding” value is reported as 2.51% in data set [1]; −4.68% in data set [7]; 5.37% in [8]; 5.82% in [14]; 21.45% in data set [16]. Further, the inhibition at 1 µM is -20.1% in data set [2]; 3.45% in [3]; 0.24% in data set [4]; -6.51% in [5]; 17.2% in data set [6]; -5.82% in data set [9]. Also, the inhibition at 1 µM was 2.17% in data set [10], 19.5% in data set [11], -3.04% in data set [12] and 10.2% in data set [17]. Moreover, the percentage inhibition in data set [13] is reported as 4.24%; in data set [15], 2.54%.

In the case of `CC(C)(CN1CCC(=C2c3ccc(F)cc3COc3ccccc32)CC1)C(=O)O` [Compound 49a], the clinical observations entry was “no treatment-related clinical observations” in [18] (3 mg/kg/day Phase 1 dogs); “treatment-related head tremors, ataxia, hypoactivity, and excessive salivation” in data set [18] (Phase 2 (capsules)). Further, in [18] (Phase 1 and 2), the “respiration rates, rectal body temperatures, body weights, food consumption, electrocardiograms, ophthalmic examinations” value is listed as “no changes”. Moreover, the clinical laboratory data result in [18] (dog, in vivo) was “no evidence in the clinical laboratory data of an effect”. In addition, the survival entry in [18] (dog, in vivo) is reported as “survived until scheduled sacrifice”. The NOAEL at 14 days in data set [19] is 70 mg/kg/day. In addition, the Kp in [20] came out at 1. In [21], the in vitro metabolism entry is given as “extensively metabolized”. The “inhibition of CYP 2D6 activity” value in data set [22] was “did not inhibit”. Also, the “Group mean (±sd) number of abdominal spasms recorded in a 25 minute period” value stood at 6 ± 6.2 in data set [23] (oral 3 mg/kg), 1 ± 2.0 in data set [23] (oral 10 mg/kg) and 0 ± 0.0 in data set [23] (oral 30 mg/kg). The “Number of abdominal spasms recorded in a 25-minute period” value in [23] (3 mg/kg, individual animal data (animals 7-12), listed as HY-2901, 3 mg/kg) was 0 (2×) and 1 and 10 and 7 and 15; in data set [23] (10 mg/kg, individual animal data (animals 13-18), listed as HY-2901, 10 mg/kg) it was 0 (4×) and 2 and 5; in data set [23] (30 mg/kg, individual animal data (animals 19-24)) it was 0. The IC50 in data set [24] worked out at 93 µM. Further, in data set [24], the inhibition at 0.01 µM amounted to 10%.

The inhibition is the relative decrease from the control value, in per cent. By NOAEL is commonly meant the highest dose or exposure tested at which no adverse effect was seen. The IC50 is the concentration at which inhibition is half-maximal. Read a high IC50 as weaker potency in that assay.
